Results published in patent US9469615B2, “Quinoxalines and AZA-quinoxalines as CRTH2 receptor modulators” (Merck Sharp & Dohme Corp., priority 2010, dated 2016).

Target: T1, hCRTH2 (Homo sapiens, UniProt Q9Y5Y4)
T1 construct: expressed in transfected cells; host or cells: HEK (human embryonic kidney) cells expressing hCRTH2; membrane preparation
T1 sequence (Q9Y5Y4 1-395): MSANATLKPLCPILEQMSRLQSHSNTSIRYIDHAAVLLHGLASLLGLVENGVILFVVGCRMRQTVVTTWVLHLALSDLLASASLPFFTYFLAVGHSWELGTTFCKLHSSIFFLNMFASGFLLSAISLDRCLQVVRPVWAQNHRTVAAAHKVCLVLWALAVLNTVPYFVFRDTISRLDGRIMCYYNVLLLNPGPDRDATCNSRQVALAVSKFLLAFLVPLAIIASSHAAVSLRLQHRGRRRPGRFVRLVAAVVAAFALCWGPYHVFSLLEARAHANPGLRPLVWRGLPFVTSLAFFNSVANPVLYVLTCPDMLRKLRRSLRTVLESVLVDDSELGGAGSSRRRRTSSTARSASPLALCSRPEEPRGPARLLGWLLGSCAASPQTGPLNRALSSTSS
Test: Radioligand binding assay ([3H]PGD2 competition, HEK-hCRTH2 membranes)
Details: [3H]PGD2 binding
Procedure: Biological Assays Radioligand Binding Assay.
Radioligand binding assays were performed at room temperature in 50 mM Tris-HCl pH 7.4, 1 mM EDTA containing 2 mM MnCl2 and 3.0 nM [^3H]PGD2 (New England Nuclear, Boston, Mass.) (171 Ci mmol^−1), in a final volume of 0.2 mL. Competing ligands were diluted in dimethylsulfoxide (Me2SO) that was kept constant at 1% (v/v) of the final incubation volume. The reaction was initiated by the addition of 8-20 μg of membrane protein prepared from a human embryonic kidney (HEK)-hCRTH2 cell line. Total and non-specific binding were determined in the absence and the presence of 10 μM PGD2, respectively. […] The reaction was routinely conducted for 60 min at room temperature and terminated by rapid filtration through prewetted (0.3% polyethyleneimine) 96-well printed Filtermate™ (Wallac) using a Tomtec® harvester (Hamden, Conn.). After washing with cold buffer, the filter was dried for 2 minutes in microwave, and Meltilex Scintillator sheet (Wallac) was melted on for 2 min. The radioactivity was measured with Betaplate model 1205 (Wallac).

SMILES | Ki (rated A-E (Table A)) [nM] | Ki (values in text) [nM]
C[C@@H](NC(=O)c1ccc2nc(-c3ccc(Cl)cc3)c(CC3CCC(C(=O)O)C3)nc2c1)c1ccc(F)cc1 (mixture of isomers) [compound 28, 3-((3-(4-chlorophenyl)-7-((R)-1-(4-fluorophenyl)ethylcarbamoyl)quinoxalin-2-yl)methyl)cyclopentanecarboxylic acid] | 2.1 to 20 | 
O=C(N[C@@H]1CCCc2ccccc21)c1ccc2nc(-c3ccccc3)c(CCCC(F)C(=O)O)nc2c1 (mixture of isomers) [compound 38, 2-fluoro-5-(3-phenyl-7-(((R)-1,2,3,4-tetrahydronaphthalen-1-yl)carbamoyl)quinoxalin-2-yl)pentanoic acid] | 20.1 to 200 | 
O=C(O)C1CC1CCc1nc2cc(C(=O)N3CCC(c4ccccc4)CC3)ccc2nc1-c1ccccc1 (single isomer, unassigned) [compound 20, 2-(2-(3-phenyl-7-(4-phenylpiperidine-1-carbonyl)quinoxaline-2-yl)ethyl)cyclopropanecarboxylic acid] | 20.1 to 200 | 
O=C(O)CCCCc1nc2cc(C(=O)N3CCC(c4ccccc4)C3)ccc2nc1-c1ccc(C(F)(F)F)cc1 (stereo in doubt) [compound 152, 7-[(3R)-phenyl-1-pyrrolidinyl)carbonyl]-3-[4-(trifluoromethyl)phenyl]-2-quinoxalinepentanoic acid] | 2.1 to 20 | 2.9
O=C(O)CCCCc1nc2cc(C(=O)N3CCC(c4ccccc4)C3)ccc2nc1-c1ccc(C(F)(F)F)cc1 (stereo in doubt) [compound 153, 7-[(3(S)-phenyl-1-pyrrolidinyl]carbonyl]-3-[4-(trifluoromethyl)phenyl]-2-quinoxalinepentanoic acid] | 0.1 to 2 | 
CC(NC(=O)c1ccc2nc(-c3ccc(C(F)(F)F)cc3)c(CCCCC(=O)O)nc2c1)c1ccncc1 (stereo not drawn) [3AA, 7-[[[1-(4-pyridinyl)ethyl]-amino]carbonyl]-3-[4-(trifluoromethyl)-phenyl]-2-quinoxaline-pentanoic acid] | 2.1 to 20 | 
CC(NC(=O)c1ccc2nc(-c3ccc(C(F)(F)F)cc3)c(CCCCC(=O)O)nc2c1)c1ccccn1 (stereo not drawn) [3AB, 7-[[[1-(2-pyridinyl)ethyl]-amino]carbonyl]-3-[4-(trifluoromethyl)phenyl]-2-quinoxalinepentanoic acid] | 2.1 to 20 | 
O=C(O)CCCCc1nc2cc(C(=O)NCc3ccncc3)ccc2nc1-c1ccc(C(F)(F)F)cc1 [3AC, 7-[[(4-pyridinylmethyl)-amino]carbonyl]-3-[4-(trifluoromethyl)phenyl]-2-quinoxalinepentanoic acid] | 2.1 to 20 | 
O=C(O)CCCCc1nc2cc(C(=O)NCc3cccnc3)ccc2nc1-c1ccc(C(F)(F)F)cc1 [3AD] | 2.1 to 20 | 
O=C(O)CCCCc1nc2cc(C(=O)NCc3ccccn3)ccc2nc1-c1ccc(C(F)(F)F)cc1 [3AE, 7-[[(2-pyridinylmethyl)-amino]carbonyl]-3-[4-(trifluoromethyl)phenyl]-2-quinoxalinepentanoic acid] | 2.1 to 20 | 
O=C(O)CCCCc1nc2cc(C(=O)NCc3ccc(C(F)(F)F)nc3)ccc2nc1-c1ccc(C(F)(F)F)cc1 [3AF, 3-[4-(trifluoromethyl)phenyl]-7-[[[[6-(trifluoromethyl)-3-pyridinyl]methyl]amino]-carbonyl]-2-quinoxaline-pentanoic acid] | 2.1 to 20 | 
COC(=O)c1ccc2nc(-c3ccc(C(F)(F)F)cc3)c(CCCCC(=O)O)nc2c1 [3AG, 7-(methoxycarbonyl)-3-[4-(trifluoromethyl)phenyl]-2-quinoxalinepentanoic acid] | 2.1 to 20 | 
O=C(O)CCCCc1nc2cc(C(=O)Nc3ccc(F)cc3)ccc2nc1-c1cccc(F)c1 [3T, 3-(3-fluorophenyl)-7-[[(4-fluorophenyl)amino]carbonyl]-2-quinoxalinepentanoic acid] | 20.1 to 200 | 
O=C(O)CCCCc1nc2cc(C(=O)Nc3cccc(F)c3)ccc2nc1-c1cccc(F)c1 [3U, 3-(3-fluorophenyl)-7-[[(3-fluorophenyl)amino]carbonyl]-2-quinoxalinepentanoic acid] | 20.1 to 200 | 
O=C(O)CCCCc1nc2cc(C(=O)Nc3ccccc3F)ccc2nc1-c1cccc(F)c1 [3V, 3-(3-fluoropheny)-7-[[(2-fluorophenyl)amino]carbonyl]-2-quinoxalinepentanoic acid] | 201 to 700 | 
C[C@H](NC(=O)c1ccc2nc(-c3ccc(C(F)(F)F)cc3)c(CCCCC(=O)O)nc2c1)c1ccccc1 [3W, 7-[[(1-(S)-phenylethyl)amino]carbonyl]-3-[4-(trifluoromethyl)phenyl]-2-quinoxalinepentanoic acid] | 2.1 to 20 | 
C[C@@H](NC(=O)c1ccc2nc(-c3ccc(C(F)(F)F)cc3)c(CCCCC(=O)O)nc2c1)c1ccccc1 [3X, 7-[[(1-(R)-phenylethyl)amino]carbonyl]-3-[4-(trifluoromethyl)phenyl]-2-quinoxalinepentanoic acid] | 2.1 to 20 | 
O=C(O)CCCCc1nc2cc(C(=O)N3CCN(c4ccccc4)CC3)ccc2nc1-c1ccc(C(F)(F)F)cc1 [3Y, 7-[(4-phenyl-1-piperazinyl)carbonyl]-3-[4-(trifluoromethyl)phenyl]-2-quinoxalinepentanoic acid] | 0.1 to 2 | 
O=C(O)CCCCc1nc2cc(C(=O)C3CC3)ccc2nc1-c1ccc(C(F)(F)F)cc1 [3Z, 7-(cyclopropylcarbonyl)-3-[4-(trifluoromethyl)phenyl]-2-quinoxalinepentanoic acid] | 0.1 to 2 | 

Next, values leading:

Ki (rated A-E (Table A)) [nM] | Ki (values in text) [nM] | SMILES
0.1 to 2 |  | CC(NC(=O)c1ccc2nc(-c3ccc(C(F)(F)F)cc3)c(CCCCC(=O)O)nc2c1)c1ccc(-c2ccccc2)cc1 (racemic) [4E, 7-[[(1-[1,1′-biphenyl]-4-ylethyl)amino]carbonyl]-3-[4-(trifluoromethyl)-phenyl]-2-quinoxaline-pentanoic acid]
2.1 to 20 |  | CC(NC(=O)c1ccc2nc(-c3ccc(C(F)(F)F)cc3)c(CCCCC(=O)O)nc2c1)c1ccc(-c2ccccc2)cc1 (single isomer, unassigned) [4F, 7-[[(1-[1,1′-biphenyl]-4-ylethyl)amino]carbonyl]-3-[4-(trifluoromethyl)-phenyl]-2-quinoxaline-pentanoic acid]
2.1 to 20 |  | CC(NC(=O)c1ccc2nc(-c3ccc(C(F)(F)F)cc3)c(CCCCC(=O)O)nc2c1)c1ccc(-c2ccccc2)cc1 (single isomer, unassigned) [4G, 7-[[(1-[1,1′-biphenyl]-4-ylethyl)amino]carbonyl]-3-[4-(trifluoromethyl)-phenyl]-2-quinoxaline-pentanoic acid]
2.1 to 20 |  | O=C(O)C1CC1CCc1nc2cc(C(=O)N3CCC(c4ccccc4)CC3)ccc2nc1-c1ccccc1 (single isomer, unassigned) [20F, 2-(2-(3-phenyl-7-(4-phenylpiperidine-1-carbonyl)quinoxaline-2-yl)ethyl)cyclopropanecarboxylic acid]
2.1 to 20 |  | O=C(O)C1CC1CCc1nc2cc(C(=O)N3CCC(c4ccccc4)CC3)ccc2nc1-c1ccccc1 (single isomer, unassigned) [20G, 2-(2-(3-phenyl-7-(4-phenylpiperidine-1-carbonyl)quinoxaline-2-yl)ethyl)cyclopropanecarboxylic acid]
2.1 to 20 |  | O=C(O)C1CC1CCc1nc2cc(C(=O)N3CCC(c4ccccc4)CC3)ccc2nc1-c1ccccc1 (single isomer, unassigned) [20H, 2-(2-(3-phenyl-7-(4-phenylpiperidine-1-carbonyl)quinoxaline-2-yl)ethyl)cyclopropanecarboxylic acid]
20.1 to 200 |  | O=C(N[C@@H]1CCCc2ccccc21)c1ccc2nc(-c3ccccc3)c(CCCC(F)C(=O)O)nc2c1 (single isomer, unassigned) [38A]
20.1 to 200 |  | O=C(N[C@@H]1CCCc2ccccc21)c1ccc2nc(-c3ccccc3)c(CCCC(F)C(=O)O)nc2c1 (single isomer, unassigned) [38B]
0.1 to 2 |  | CC(NC(=O)c1ccc2nc(-c3ccc(Cl)cc3)c(CCCCC(=O)O)nc2c1)c1ccccn1 (stereo in doubt) [16AA, 3-(4-chlorophenyl)-7-[[[1(S)-(2-pyridinyl)ethyl]amino]carbonyl]-2-quinoxalinepentanoic acid]
20.1 to 200 |  | C[C@@H](NC(=O)c1ccc2nc(-c3ccc(C(F)(F)F)cc3)c(CCCCC(=O)O)nc2c1)c1cccc(-c2ccccc2)c1 [4D, 7-[[[1-(R)-[1,1′-biphenyl]-3-ylethyl]amino]carbonyl]-3-[4-(trifluoromethyl)-phenyl]-2-quinoxaline-pentanoic acid]
0.1 to 2 |  | O=C(O)CCCCc1nc2cc(C(=O)c3ccccc3)ccc2nc1-c1ccc(F)cc1 [5G]
20.1 to 200 |  | O=C(O)CCCCc1nc2cc(C(=O)Nc3cccc(F)c3)ccc2nc1-c1ccc(F)cc1 [5N, 3-(4-fluorophenyl)-7-[[(3-fluorophenyl)amino]carbonyl]-2-quinoxalinepentanoic acid]
20.1 to 200 |  | O=C(O)CCCCc1nc2cc(C(=O)Nc3ccc(F)cc3)ccc2nc1-c1ccc(F)cc1 [5O, 3-(4-fluorophenyl)-7-[[(4-fluorophenyl)amino]carbonyl]-2-quinoxalinepentanoic acid]
